In brackets after ≈: the same amount, converted by molar mass. Several values for one entry are separate records, joined by “and”; a condition that tells them apart may be missing. Identical values can stand only once.
Experiments:
[1] = test system: H9C2: rat heart/myocardium; assay: In vitro cytotoxicity on normal cell line; format: cell-based
[2] = In vitro cytotoxicity on normal cell line; format: cell-based, rat; conditions: rat, H9C2 heart/myocardium cells
[3] = test system: C. albicans200; assay: Checkerboard combination assay with Ketoconazole; format: cell-based, Candida albicans
[4] = test system: C. albicans100 (MDR00100); assay: MIC and MFC by broth microdilution; format: cell-based, Candida albicans
[5] = test system: S. aureus (MDR00231); assay: Agar well-diffusion antimicrobial sensitivity assay; format: cell-based, Staphylococcus aureus; conditions: Staphylococcus aureus, read-out: Inhibition Zone (IZ)
[6] = test system: A. baumannii; assay: Single-step resistance selection; format: cell-based; conditions: 4 × MIC, 48 h
[7] = biological target: E. coli DNA gyrase (Escherichia coli, UniProt P0AES4+P0AES6); assay: DNA gyrase inhibition; format: biochemical
[8] = test system: clinical pathogenic isolates; assay: Single-step resistance selection, whole panel; format: cell-based; conditions: 4 × MIC
[9] = test system: K. pneumoniae; assay: Single-step resistance selection; format: cell-based; conditions: 4 × MIC, 48 h
[10] = test system: B. subtilis (MDR00423); assay: MIC and MBC by broth microdilution; format: cell-based
[11] = test system: S. epidermidis (MDR00223); assay: Agar well-diffusion antimicrobial sensitivity assay; format: cell-based, Staphylococcus epidermidis; conditions: Staphylococcus epidermidis, read-out: Inhibition Zone (IZ)
[12] = test system: C. albicans100; assay: Single-step resistance selection; format: cell-based, Candida albicans; conditions: 4 × MIC, 48 h
[13] = biological target: T1, dihydrofolate reductase (DHFR) (Homo sapiens, UniProt P00374); assay: DHFR inhibition; format: biochemical
T1 sequence (P00374 1-187): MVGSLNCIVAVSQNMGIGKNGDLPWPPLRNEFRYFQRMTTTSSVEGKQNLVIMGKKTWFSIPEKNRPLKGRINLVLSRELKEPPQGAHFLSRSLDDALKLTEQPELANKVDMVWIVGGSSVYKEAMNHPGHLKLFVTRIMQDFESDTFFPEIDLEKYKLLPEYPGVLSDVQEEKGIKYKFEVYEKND

[14] = test system: E. coli; assay: Single-step resistance selection; format: cell-based; conditions: 4 × MIC, 48 h
[15] = test system: S. aureus; assay: Checkerboard combination assay with Ciprofloxacin; format: cell-based, Staphylococcus aureus
[16] = test system: E. coli (MDR00501); assay: Agar well-diffusion antimicrobial sensitivity assay; format: cell-based; conditions: Escherichia coli, read-out: Inhibition Zone (IZ)
[17] = test system: C. albicans200 (MDR00200); assay: as above; format: cell-based, Candida albicans; conditions: Candida albicans, read-out: Inhibition Zone (IZ)
[18] = test system: RBCs; assay: Hemolytic assay; format: cell-based; conditions: human RBCs; compounds 1.0 mg/mL; Triton X-100 0.1% v/v; 37 °C, 35 min
[19] = test system: C. albicans200 (MDR00200); assay: MIC and MFC by broth microdilution; format: cell-based, Candida albicans
[20] = test system: S. epidermidis (MDR00223); assay: MIC and MBC by broth microdilution; format: cell-based, Staphylococcus epidermidis
[21] = test system: Vero: green monkey kidney; assay: In vitro cytotoxicity on normal cell line; format: cell-based
[22] = In vitro cytotoxicity on normal cell line; format: cell-based, green monkey; conditions: green monkey, Vero kidney cells
[23] = test system: S. aureus biofilm; assay: Staphylococcus biofilm mass reduction; format: cell-based; conditions: at their MIC
[24] = test system: E. coli (MDR00501); assay: MIC and MBC by broth microdilution; format: cell-based
[25] = test system: S. aureus (MDR00231); assay: MIC and MBC by broth microdilution; format: cell-based, Staphylococcus aureus
[26] = test system: S. aureus; assay: Single-step resistance selection; format: cell-based, Staphylococcus aureus; conditions: 4 × MIC, 48 h
[27] = test system: K. pneumoniae (MDR00244); assay: MIC and MBC by broth microdilution; format: cell-based; conditions: ratio in parentheses
[28] = test system: S. epidermidis; assay: Single-step resistance selection; format: cell-based, Staphylococcus epidermidis; conditions: 4 × MIC, 48 h
[29] = test system: B. subtilis; assay: Single-step resistance selection; format: cell-based; conditions: 4 × MIC, 48 h
[30] = test system: C. albicans100 (MDR00100); assay: Agar well-diffusion antimicrobial sensitivity assay; format: cell-based, Candida albicans; conditions: Candida albicans, read-out: Inhibition Zone (IZ)
[31] = test system: BNL: mouse normal liver cells; assay: In vitro cytotoxicity on normal cell line; format: cell-based
[32] = In vitro cytotoxicity on normal cell line; format: cell-based, mouse; conditions: mouse, BNL normal liver cells
[33] = test system: A. baumannii (MDR00521); assay: MIC and MBC by broth microdilution; format: cell-based; conditions: ratio in parentheses
[34] = test system: C. albicans200; assay: Single-step resistance selection; format: cell-based, Candida albicans; conditions: 4 × MIC, 48 h
[35] = test system: S. epidermidis biofilm; assay: Staphylococcus biofilm mass reduction; format: cell-based; conditions: at their MIC
[36] = test system: A. baumannii; assay: Checkerboard combination assay with Ciprofloxacin; format: cell-based
[37] = test system: Gram-negative bacteria; assay: MIC broth microdilution, Gram-negative panel; format: cell-based; conditions: Gram-negative bacteria used in this study
[38] = test system: E. coli; assay: Checkerboard combination assay with Ciprofloxacin; format: cell-based

Chain of E. coli DNA gyrase (P0AES4 whole entry, one chain of several): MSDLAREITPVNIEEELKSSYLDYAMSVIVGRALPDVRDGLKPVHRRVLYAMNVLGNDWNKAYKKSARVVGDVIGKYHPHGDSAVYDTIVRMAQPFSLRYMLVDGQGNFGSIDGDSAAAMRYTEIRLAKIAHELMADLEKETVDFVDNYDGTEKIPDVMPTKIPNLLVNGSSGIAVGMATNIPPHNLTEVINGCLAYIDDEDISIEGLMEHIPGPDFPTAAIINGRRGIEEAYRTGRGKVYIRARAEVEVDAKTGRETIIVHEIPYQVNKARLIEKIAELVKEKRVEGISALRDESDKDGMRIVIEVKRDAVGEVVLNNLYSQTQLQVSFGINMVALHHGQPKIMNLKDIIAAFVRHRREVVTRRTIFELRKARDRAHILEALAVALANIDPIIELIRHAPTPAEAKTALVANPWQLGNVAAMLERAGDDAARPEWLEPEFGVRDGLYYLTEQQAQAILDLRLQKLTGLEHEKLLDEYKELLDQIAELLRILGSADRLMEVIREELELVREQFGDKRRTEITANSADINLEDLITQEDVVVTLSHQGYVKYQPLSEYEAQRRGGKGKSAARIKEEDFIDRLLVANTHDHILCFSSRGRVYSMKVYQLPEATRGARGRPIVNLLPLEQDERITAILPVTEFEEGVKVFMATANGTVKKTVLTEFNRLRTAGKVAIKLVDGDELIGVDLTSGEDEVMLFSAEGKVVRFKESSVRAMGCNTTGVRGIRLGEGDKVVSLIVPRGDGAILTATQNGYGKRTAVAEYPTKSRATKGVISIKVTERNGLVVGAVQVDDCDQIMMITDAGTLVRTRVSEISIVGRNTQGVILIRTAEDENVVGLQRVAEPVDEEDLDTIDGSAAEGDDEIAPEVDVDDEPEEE

With `Cc1c(NC(=O)CC2=NC(=O)CS2)c(=O)n(-c2ccccc2)n1C` [Compound 10, N-(1,5-Dimethyl-3-oxo-2-phenyl-2,3-dihydro-1H-pyrazol-4-yl)-2-(4-oxo-4,5-dihydrothiazol-2-yl)acetamide] the “Selectivity index against DHFR” value ([1]; IC50 of H9C2 / IC50 of DHFR) was 70.26, the “Selectivity index against DNA gyrase” value ([1]; IC50 of H9C2 / IC50 of DNA gyrase) was 3.45 and the IC50 at 72 h [2] was 99.8 ± 1.84 µM. For the same molecule, the combination effect [3] was “S (S: synergism)”, the “fractional inhibitory concentration index (FICI)” value [3] was 0.5 and the MFC/MIC ([4]; C. albicans100, ratio in parentheses) was 2. For the same molecule, the MIC ([4]; Candida albicans, read-out: MIC (mean ± SEM), C. albicans100, broth microdilution) was 0.95 ± 0.3 µg/mL (≈ 2.76 µM), the zone of inhibition at 100000 µg/mL [5] was 27 ± 0.21 mm and the “Single-step resistance frequency (mutation frequency)” value (“Single-step resistance frequency” for short) [6] was 2.53 × 10^–8. For the same molecule, the IC50 [7] was 28.88 ± 0.12 µM, the “mutation frequency, range over panel” value [8] was 2.41 × 10^–8 to 3.50 × 10^–8 and the “Single-step resistance frequency” value [9] was 2.61 × 10^–8. It also gave an MBC/MIC ([10]; B. subtilis, ratio in parentheses) of 2, an MIC ([10]; Bacillus subtilis, read-out: MIC (mean ± SEM), B. subtilis, broth microdilution) of 0.98 ± 0.1 µg/mL (≈ 2.85 µM) and a zone of inhibition at 100000 µg/mL [11] of 26 ± 0.4 mm. The “Single-step resistance frequency” value [12] was 3.33 × 10^–8, the IC50 [13] was 1.42 ± 0.23 µM and the “Single-step resistance frequency” value [14] was 2.60 × 10^–8. For the same molecule, the combination effect [15] was “S (S: synergism)”, the “fractional inhibitory concentration index (FICI)” value [15] was 0.5 and the zone of inhibition at 100000 µg/mL [16] was 25 ± 0.22 mm. For the same molecule, the zone of inhibition at 100000 µg/mL [17] was 30 ± 0.55 mm, the “%lysis of RBCs” value [18] was 11.66% and 11.66 ± 0.231% and the MFC/MIC ([19]; C. albicans200, ratio in parentheses) was 1. It also gave an MIC ([19]; Candida albicans, read-out: MIC (mean ± SEM), C. albicans200, broth microdilution) of 0.47 ± 0.1 µg/mL (≈ 1.36 µM), an MBC/MIC ([20]; S. epidermidis, ratio in parentheses) of 1 and an MIC ([20]; Staphylococcus epidermidis, read-out: MIC (mean ± SEM), S. epidermidis, broth microdilution) of 0.97 ± 0.4 µg/mL (≈ 2.82 µM). For the same molecule, the “Selectivity index against DHFR” value ([21]; IC50 of Vero / IC50 of DHFR) was 49.33, the “Selectivity index against DNA gyrase” value ([21]; IC50 of Vero / IC50 of DNA gyrase) was 2.42 and the IC50 at 72 h [22] was 70.06 ± 0.34 µM. For the same molecule, the “reduction of biofilm formation” value [23] was 55.6%, the MBC/MIC ([24]; E. coli, ratio in parentheses) was 1 and the MIC ([24]; Escherichia coli, read-out: MIC (mean ± SEM), E. coli, broth microdilution) was 0.46 ± 0.4 µg/mL (≈ 1.34 µM). The MBC/MIC ([25]; S. aureus, ratio in parentheses) was 1, the MIC ([25]; Staphylococcus aureus, read-out: MIC (mean ± SEM), S. aureus, broth microdilution) was 0.95 ± 0.2 µg/mL (≈ 2.76 µM) and the “Single-step resistance frequency” value [26] was 2.41 × 10^–8. The MBC/MIC [27] was 1, the “Single-step resistance frequency” value [28] was 3.00 × 10^–8 and the “Single-step resistance frequency” value [29] was 3.50 × 10^–8. The zone of inhibition at 100000 µg/mL [30] was 28 ± 0.88 mm, the “Selectivity index against DHFR” value ([31]; IC50 of BNL / IC50 of DHFR) was 69.64 and the “Selectivity index against DNA gyrase” value ([31]; IC50 of BNL / IC50 of DNA gyrase) was 3.42. For the same molecule, the IC50 at 72 h [32] was 98.9 ± 1.54 µM, the MBC/MIC [33] was 0.5 and the “Single-step resistance frequency” value [34] was 3.50 × 10^–8. The “reduction of biofilm formation” value [35] was 53.3%, the combination effect [36] was “S (S: synergism)” and the “fractional inhibitory concentration index (FICI)” value [36] was 0.5. For the same molecule, the “MIC, range over panel” value [37] was 0.43 to 0.98 µg/mL, the combination effect [38] was “S (S: synergism)” and the “fractional inhibitory concentration index (FICI)” value [38] was 0.5.
